From US7132504B2, “Hepatitis C virus inhibitors” (Bristol-Myers Squibb Company, priority 2003, dated 2006) come the findings set out here.

A value given as a limit tells only on which side of the number the result lay.

The target in assay [1] is T1, HCV NS3/4A protease complex (UniProt P27958, C1454S/C1711G, species not given).
T1 construct: fused on or other part: Three-lysine solubilising tail at the C-terminus of NS4A
Put plainly: Recombinant HCV NS3/4A protease complex FRET peptide assay (strain not stated). To be noted: NS3/4A protease enzyme assay, read-out: Activity Range IC50. The assay is classed as biochemical. From the text: The purpose of this in vitro assay was to measure the inhibition of HCV NS3 protease complexes, derived from the BMS strain, H77 strain or J416S strain, as described below, by compounds of the present invention. This assay provides an indication of how effective compounds of the present invention would be in inhibiting HCV proteolytic activity.
Serum from an HCV-infected patient was obtained from Dr. T. Wright, San Francisco Hospital. An engineered full-length cDNA (compliment deoxyribonucleic acid) template of the HCV genome (BMS strain) was constructed from DNA fragments obtained by reverse transcription-PCR (RT-PCR) of serum RNA (ribonucleic acid) and using primers selected on the basis of homology between other genotype 1a strains. From the determination of the entire genome sequence, a genotype 1a was assigned to the HCV isolate according to the classification of Simmonds et al. (See P Simmonds, K A Rose, S Graham, S W Chan, F McOmish, B C Dow, E A Follett, P L Yap and H Marsden, J. Clin. Microbiol., 31(6), 1493–1503 (1993)). […] The infectious clones, H77 (1a genotype) and J4L6S (1b genotype) were obtained from R. Purcell (NIH) and the sequences are published in Genbank (AAB67036, see Yanagi, M., Purcell, R. H., Emerson, S. U. and Bukh, J. Proc. Natl. Acad. Sci. U.S.A. 94(16), 8738–8743 (1997); AF054247, see Yanagi, M., St Claire, M., Shapiro, M., Emerson, S. U., Purcell, R. H. and Bukh, J, Virology 244 (1), 161–172. (1998)).
The H77 and J4L6S strains were used for production of recombinant NS3/4A protease complexes. DNA encoding the recombinant HCV NS3/4A protease complex (amino acids 1027 to 1711) for these strains were manipulated as described by P. Gallinari et al. (see Gallinari P, Paolini C, Brennan D, Nardi C, Steinkuhler C, De Francesco R. Biochemistry. 38(17):5620–32, (1999)). Briefly, a three-lysine solubilizing tail was added at the 3′-end of the NS4A coding region. The cysteine in the P1 position of the NS4A–NS4B cleavage site (amino acid 1711) was changed to a glycine to avoid the proteolytic cleavage of the lysine tag. Furthermore, a cysteine to serine mutation was introduced by PCR at amino acid position 1454 to prevent the autolytic cleavage in the NS3 helicase domain. The variant DNA fragment was cloned in the pET21b bacterial expression vector (Novagen) and the NS3/4A complex was expressed in Escherichia. coli strain BL21 (DE3) (Invitrogen) following the protocol described by P. Gallinari et al. (see Gallinari P, Brennan D, Nardi C, Brunetti M, Tomei L, Steinkuhler C, De Francesco R., J Virol. 72(8):6758–69 (1998)) with modifications. Briefly, the NS3/4A protease complex expression was induced with 0.5 millimolar (mM) Isopropyl β-D-1-thiogalactopyranoside (IPTG) for 22 hours (h) at 20° C. A typical fermentation (1 Liter (L)) yielded approximately 10 grams (g) of wet cell paste. The cells were resuspended in lysis buffer (10 mL/g) consisting of 25 mM N-(2-Hydroxyethyl)Piperazine-N′-(2-Ethane Sulfonic acid) (HEPES), pH 7.5, 20% glycerol, 500 mM Sodium Chloride (NaCl), 0.5% Triton X-100, 1 microgram/milliliter (“μg/mL”) lysozyme, 5 mM Magnesium Chloride (MgCl2), 1 μg/ml Dnasel, 5 mM β-Mercaptoethanol (βME), Protease inhibitor—Ethylenediamine Tetraacetic acid (EDTA) free (Roche), homogenized and incubated for 20 minutes (min) at 4° C. The homogenate was sonicated and clarified by ultra-centrifugation at 235000 g for 1 h at 4° C. Imidazole was added to the supernatant to a final concentration of 15 mM and the pH adjusted to 8.0. The crude protein extract was loaded on a Nickel—Nitrilotriacetic acid (Ni-NTA) column pre-equilibrated with buffer B (25 mM HEPES, pH 8.0, 20% glycerol, 500 mM NaCl, 0.5% Triton X-100, 15 mM imidazole, 5 mM βME). The sample was loaded at a flow rate of 1 mL/min. The column was washed with 15 column volumes of buffer C (same as buffer B except with 0.2% Triton X-100). The protein was eluted with 5 column volumes of buffer D (same as buffer C except with 200 mM Imidazole). […]

Assay [2] has as its system HCV replicon in Huh7 cells. The assay is described as follows: HCV replicon cell-based assay (FRET). Also noted: species or system HCV strain 1b. Particulars: Hepatitis C virus, Huh-7, 96 h, 4 days, read-out: Activity Range EC50. From the text:
An HCV replicon whole cell system was established as described by Lohmann V, Korner F, Koch J, Herian U, Theilmann L, Bartenschlager R., Science 285(5424):110–3 (1999). This system enabled us to evaluate the effects of our HCV Protease compounds on HCV RNA replication. Briefly, using the HCV strain 1b sequence described in the Lohmann paper (Assession number:AJ238799), an HCV cDNA was generated encoding the 5′ internal ribosome entry site (IRES), the neomycin resistance gene, the EMCV (encephalomyocarditis viurs)-IRES and the HCV nonstructural proteins, NS3–NS5B, and 3′ non-translated region (NTR). In vitro transcripts of the cDNA were transfected into the human hepatoma cell line, Huh7. […] Resulting cell lines were characterized for positive and negative strand RNA production and protein production over time.
Huh7 cells, constitutively expressing the HCV replicon, were grown in Dulbecco's Modified Eagle Media (DMEM) containing 10% Fetal calf serum (FCS) and 1 mg/ml G418 (Gibco-BRL). Cells were seeded the night before (1.5×10^4 cells/well) in 96-well tissue-culture sterile plates. Compound and no compound controls were prepared in DMEM containing 4% FCS, 1:100 Penicillin/Streptomysin, 1:100 L-glutamine and 5% DMSO in the dilution plate (0.5% DMSO final concentration in the assay). Compound/DMSO mixes were added to the cells and incubated for 4 days at 37° C. After 4 days, plates were rinsed thoroughly with Phosphate-Buffered Saline (PBS) (3 times 150 μl). The cells were lysed with 25 μl of a lysis assay reagent containing the FRET peptide (RET S1, as described for the in vitro enzyme assay). The lysis assay reagent was made from 5× cell Luciferase cell culture lysis reagent (Promega #E153A) diluted to 1× with distilled water, NaCl added to 150 mM final, the FRET peptide diluted to 10 μM final from a 2 mM stock in 100% DMSO. The plate was then placed into the Cytofluor 4000 instrument which had been set to 340 nm excitation/490 nm emission, automatic mode for 21 cycles and the plate read in a kinetic mode. EC50 determinations were carried out as described for the IC50 determinations. […]
The percentage inhibition was calculated using the formula below: […]
The values were graphed and analyzed using XLFit to obtain the EC50 value.
In general terms: A replicon is a self-replicating genome or part of one, used to study replication in cells.

For `C=CC1C[C@]1(NC(=O)[C@@H]1C[C@@H](Oc2cc(-c3ccccc3)nc3cc(OC)ccc23)CN1C(=O)[C@@H](NC(=O)OC)C(C)(C)C)C(=O)NS(=O)(=O)N(C)C(C)C` (stereo partly shown) [Compound 7], in assay [1], the IC50 (commonly the concentration needed to halve the response being measured) was under 150 nM. In addition, the EC50 (commonly the midpoint of the concentration-response curve) in assay [2] was 150 to 1500 nM.
Taken in the same sequence, the figures for `C=CC1C[C@]1(NC(=O)[C@@H]1C[C@@H](Oc2nccc3cc(OC)ccc23)CN1C(=O)[C@@H](NC(=O)OC(C)(C)C)C(C)(C)C)C(=O)NS(=O)(=O)N1CCCC1` (stereo partly shown) [Compound 18] were under 150 nM and under 150 nM.
